In US20020137929A1, “1 - (3-heterocyclylphenyl) isothiourea, -isourea, -guanidine and -amidine herbicidal agents” (Intellectual Property Department, BASF Aktiengesellschaft, priority 1998, published 2002):

Assays:
AMBEL (Ragweed, Common) = test: Postemergence herbicidal evaluation; assay type: in vivo, Ambrosia artemisifolia; conditions: postemergence
How it was run: (§1)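 Two-week seedlings sprayed postemergence at 40 psi; formulation: 1:1 acetone/water, 0.5% TWEEN 20; application ≈0.0156–0.500 kg/ha. Greenhouse grow-out, then 0–9 visual scoring at 4–5 weeks.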

CASOB (Sicklepod) = test: Postemergence herbicidal evaluation; assay type: in vivo, Cassia obtusifolia; conditions: postemergence
How it was run: as §1

GALAP (Galium) [1] = test: Postemergence herbicidal evaluation; assay type: in vivo, Galium aparine; conditions: postemergence
How it was run: as §1

[2] = tested on: GLXMAW (Soybean, Williams); test: Postemergence herbicidal evaluation; assay type: in vivo, Glycine max, (L.) Merr. cv Williams; conditions: postemergence
How it was run: as §1

[3] = tested on: TRZAWR (Wheat, Winter, cv Riband); test: Postemergence herbicidal evaluation; assay type: in vivo, Triticum aestivum; conditions: postemergence
How it was run: as §1

GALAP (Galium) [4] = test: Preemergence herbicidal evaluation; assay type: in vivo, Galium aparine; conditions: rated 4-5 weeks after treatment
How it was run: (§2)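 Sown cups got a single aqueous acetone spray of test compound (roughly 0.0156–0.500 kg/ha) before seedlings emerged. Evaluation, 4–5 weeks on, used a 0–9 visual scale covering plant stand, vigor, size, malformation, chlorosis and general appearance compared with controls.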

SETVI (Foxtail, Green) = test: Preemergence herbicidal evaluation; assay type: in vivo, Setaria viridis; conditions: rated 4-5 weeks after treatment
How it was run: as §2

ORYSAT (Rice, Tebonnet) = test: Preemergence herbicidal evaluation; assay type: in vivo, Oryza sativa, (L.) Tebonnet; conditions: rated 4-5 weeks after treatment
How it was run: as §2

[5] = tested on: ECHORC (Watergrass (Calif.)); test: Preemergence weed control under flooded paddy conditions; assay type: in vivo, Echinochloa oryzoides; conditions: rated 3-4 weeks after treatment
How it was run: (§3)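 Visual injury scored 0-9 against control three to four weeks post-treatment, greenhouse-grown. Application: acetone/water (50/50) solutions dosed directly into flood water (1.5-3 cm over silt loam, planted top 0.5 cm), roughly 0.0313 to 0.500 kg/ha active ingredient.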

CYPSE (Flatsedge) = test: as above; assay type: in vivo, Cyperus serotinus; conditions: rated 3-4 weeks after treatment
How it was run: as §3

MOOVA (Monochoria) = test: as above; assay type: in vivo, Monochoria vaginalis; conditions: rated 3-4 weeks after treatment
How it was run: as §3

[6] = tested on: SAGPY (Arrowhead (Pygmaea)); test: as above; assay type: in vivo, Sagittaria pygmaea; conditions: rated 3-4 weeks after treatment
How it was run: as §3

## Cn1c(C(F)(F)F)cc(=O)n(-c2cc(N=C3SCC(=O)N3C3CCCC3)c(Cl)cc2F)c1=O [Compound 166, 3-{4-Chloro-5-[(3-cyclopentyl-4-oxo-2-thiazolidinylidene)amino]-2-fluorophenyl}-1-methyl-6-(trifluoromethyl)-2,4(1H,3H)-pyrimidinedione]
AMBEL (Ragweed, Common); rate 0.0156 kg/ha
  Herbicidal rating AMBEL: 0.0
AMBEL (Ragweed, Common); rate 0.0313 kg/ha
  Herbicidal rating AMBEL: 3.0
AMBEL (Ragweed, Common); rate 0.0625 kg/ha
  Herbicidal rating AMBEL: 6.0
AMBEL (Ragweed, Common); rate 0.1250 kg/ha
  Herbicidal rating AMBEL: 7.0
CASOB (Sicklepod); rate 0.0156 kg/ha
  Herbicidal rating CASOB: 0.0
CASOB (Sicklepod); rate 0.0313 kg/ha
  Herbicidal rating CASOB: 0.0
CASOB (Sicklepod); rate 0.0625 kg/ha
  Herbicidal rating CASOB: 0.0
CASOB (Sicklepod); rate 0.1250 kg/ha
  Herbicidal rating CASOB: 1.0
GALAP (Galium) [1]; rate 0.0156 kg/ha
  Herbicidal rating GALAP: 0.0
GALAP (Galium) [1]; rate 0.0313 kg/ha
  Herbicidal rating GALAP: 0.0
GALAP (Galium) [1]; rate 0.0625 kg/ha
  Herbicidal rating GALAP: 0.0
GALAP (Galium) [1]; rate 0.1250 kg/ha
  Herbicidal rating GALAP: 2.0
[2]; rate 0.0156 kg/ha
  Herbicidal rating GLXMAW: 4.0
[2]; rate 0.0313 kg/ha
  Herbicidal rating GLXMAW: 3.5
[2]; rate 0.0625 kg/ha
  Herbicidal rating GLXMAW: 4.0
[2]; rate 0.1250 kg/ha
  Herbicidal rating GLXMAW: 5.0
[3]; rate 0.0156 kg/ha
  Herbicidal rating TRZAWR: 1.5
[3]; rate 0.0313 kg/ha
  Herbicidal rating TRZAWR: 1.5
[3]; rate 0.0625 kg/ha
  Herbicidal rating TRZAWR: 2.5
[3]; rate 0.1250 kg/ha
  Herbicidal rating TRZAWR: 3.0
GALAP (Galium) [4]; 0.0156 kg/ha
  Preemergence herbicidal rating GALAP: 0.0
GALAP (Galium) [4]; 0.0313 kg/ha
  Preemergence herbicidal rating GALAP: 0.0
GALAP (Galium) [4]; 0.0625 kg/ha
  Preemergence herbicidal rating GALAP: 2.0
GALAP (Galium) [4]; 0.1250 kg/ha
  Preemergence herbicidal rating GALAP: 5.0
GALAP (Galium) [4]; 0.2500 kg/ha
  Preemergence herbicidal rating GALAP: 7.0
GALAP (Galium) [4]; 0.5000 kg/ha
  Preemergence herbicidal rating GALAP: 8.0
SETVI (Foxtail, Green); 0.0156 kg/ha
  Preemergence herbicidal rating SETVI: 0.0
SETVI (Foxtail, Green); 0.0313 kg/ha
  Preemergence herbicidal rating SETVI: 0.0
SETVI (Foxtail, Green); 0.0625 kg/ha
  Preemergence herbicidal rating SETVI: 1.0
SETVI (Foxtail, Green); 0.1250 kg/ha
  Preemergence herbicidal rating SETVI: 6.0
SETVI (Foxtail, Green); 0.2500 kg/ha
  Preemergence herbicidal rating SETVI: 6.0
SETVI (Foxtail, Green); 0.5000 kg/ha
  Preemergence herbicidal rating SETVI: 9.0
ORYSAT (Rice, Tebonnet); 0.0156 kg/ha
  Preemergence herbicidal rating ORYSAT: 0.0
ORYSAT (Rice, Tebonnet); 0.0313 kg/ha
  Preemergence herbicidal rating ORYSAT: 0.0
ORYSAT (Rice, Tebonnet); 0.0625 kg/ha
  Preemergence herbicidal rating ORYSAT: 1.0
ORYSAT (Rice, Tebonnet); 0.1250 kg/ha
  Preemergence herbicidal rating ORYSAT: 1.0
ORYSAT (Rice, Tebonnet); 0.2500 kg/ha
  Preemergence herbicidal rating ORYSAT: 1.0
ORYSAT (Rice, Tebonnet); 0.5000 kg/ha
  Preemergence herbicidal rating ORYSAT: 5.0
[5]; 0.0313 kg/ha
  herbicidal effect rating, ECHORC: 2.0
[5]; 0.0625 kg/ha
  herbicidal effect rating, ECHORC: 2.0
[5]; 0.1250 kg/ha
  herbicidal effect rating, ECHORC: 2.0
[5]; 0.2500 kg/ha
  herbicidal effect rating, ECHORC: 4.0
CYPSE (Flatsedge); 0.0313 kg/ha
  herbicidal effect rating, CYPSE: 0.0
CYPSE (Flatsedge); 0.0625 kg/ha
  herbicidal effect rating, CYPSE: 0.0
CYPSE (Flatsedge); 0.1250 kg/ha
  herbicidal effect rating, CYPSE: 0.0
CYPSE (Flatsedge); 0.2500 kg/ha
  herbicidal effect rating, CYPSE: 0.0
MOOVA (Monochoria); 0.0313 kg/ha
  herbicidal effect rating, MOOVA: 9.0
MOOVA (Monochoria); 0.0625 kg/ha
  herbicidal effect rating, MOOVA: 9.0
MOOVA (Monochoria); 0.1250 kg/ha
  herbicidal effect rating, MOOVA: 9.0
MOOVA (Monochoria); 0.2500 kg/ha
  herbicidal effect rating, MOOVA: 9.0
[6]; 0.0313 kg/ha
  herbicidal effect rating, SAGPY: 2.0
[6]; 0.0625 kg/ha
  herbicidal effect rating, SAGPY: 4.0
[6]; 0.1250 kg/ha
  herbicidal effect rating, SAGPY: 5.0
[6]; 0.2500 kg/ha
  herbicidal effect rating, SAGPY: 6.0

## CCOC(=O)CN1C(=O)C(C(=O)OC(C)(C)C)SC1=Nc1cc(-n2c(=O)cc(C(F)(F)F)n(C)c2=O)c(F)cc1Cl (stereo not drawn) [Compound 167, 5-Carboxy-2-{{2-chloro-5-[3,6-dihydro-3-methyl-2,6-dioxo-4-(trifluoromethyl)-1(2H)-pyrimidinyl]-4-fluorophenyl}imino}-4-oxo-3-thiazolidineacetic acid, 5-tert-butyl ethyl ester]
AMBEL (Ragweed, Common); rate 0.0156 kg/ha
  Herbicidal rating AMBEL: 4.0
AMBEL (Ragweed, Common); rate 0.0313 kg/ha
  Herbicidal rating AMBEL: 7.0
AMBEL (Ragweed, Common); rate 0.0625 kg/ha
  Herbicidal rating AMBEL: 9.0
AMBEL (Ragweed, Common); rate 0.1250 kg/ha
  Herbicidal rating AMBEL: 7.0
CASOB (Sicklepod); rate 0.0156 kg/ha
  Herbicidal rating CASOB: 1.0
CASOB (Sicklepod); rate 0.0313 kg/ha
  Herbicidal rating CASOB: 2.0
CASOB (Sicklepod); rate 0.0625 kg/ha
  Herbicidal rating CASOB: 1.0
CASOB (Sicklepod); rate 0.1250 kg/ha
  Herbicidal rating CASOB: 4.0
GALAP (Galium) [1]; rate 0.0156 kg/ha
  Herbicidal rating GALAP: 2.0
GALAP (Galium) [1]; rate 0.0313 kg/ha
  Herbicidal rating GALAP: 3.0
GALAP (Galium) [1]; rate 0.0625 kg/ha
  Herbicidal rating GALAP: 4.0
GALAP (Galium) [1]; rate 0.1250 kg/ha
  Herbicidal rating GALAP: 4.0
[2]; rate 0.0156 kg/ha
  Herbicidal rating GLXMAW: 5.0
[2]; rate 0.0313 kg/ha
  Herbicidal rating GLXMAW: 6.0
[2]; rate 0.0625 kg/ha
  Herbicidal rating GLXMAW: 6.5
[2]; rate 0.1250 kg/ha
  Herbicidal rating GLXMAW: 6.5
[3]; rate 0.0156 kg/ha
  Herbicidal rating TRZAWR: 4.0
[3]; rate 0.0313 kg/ha
  Herbicidal rating TRZAWR: 4.0
[3]; rate 0.0625 kg/ha
  Herbicidal rating TRZAWR: 4.0
[3]; rate 0.1250 kg/ha
  Herbicidal rating TRZAWR: 4.5
GALAP (Galium) [4]; 0.0156 kg/ha
  Preemergence herbicidal rating GALAP: 1.0
GALAP (Galium) [4]; 0.0313 kg/ha
  Preemergence herbicidal rating GALAP: 5.0
GALAP (Galium) [4]; 0.0625 kg/ha
  Preemergence herbicidal rating GALAP: 7.0
GALAP (Galium) [4]; 0.1250 kg/ha
  Preemergence herbicidal rating GALAP: 9.0
GALAP (Galium) [4]; 0.2500 kg/ha
  Preemergence herbicidal rating GALAP: 6.0
GALAP (Galium) [4]; 0.5000 kg/ha
  Preemergence herbicidal rating GALAP: 7.0
SETVI (Foxtail, Green); 0.0156 kg/ha
  Preemergence herbicidal rating SETVI: 5.0
SETVI (Foxtail, Green); 0.0313 kg/ha
  Preemergence herbicidal rating SETVI: 7.0
SETVI (Foxtail, Green); 0.0625 kg/ha
  Preemergence herbicidal rating SETVI: 9.0
SETVI (Foxtail, Green); 0.1250 kg/ha
  Preemergence herbicidal rating SETVI: 9.0
SETVI (Foxtail, Green); 0.2500 kg/ha
  Preemergence herbicidal rating SETVI: 9.0
SETVI (Foxtail, Green); 0.5000 kg/ha
  Preemergence herbicidal rating SETVI: 9.0
ORYSAT (Rice, Tebonnet); 0.0156 kg/ha
  Preemergence herbicidal rating ORYSAT: 0.0
ORYSAT (Rice, Tebonnet); 0.0313 kg/ha
  Preemergence herbicidal rating ORYSAT: 0.0
ORYSAT (Rice, Tebonnet); 0.0625 kg/ha
  Preemergence herbicidal rating ORYSAT: 1.0
ORYSAT (Rice, Tebonnet); 0.1250 kg/ha
  Preemergence herbicidal rating ORYSAT: 4.0
ORYSAT (Rice, Tebonnet); 0.2500 kg/ha
  Preemergence herbicidal rating ORYSAT: 5.0
ORYSAT (Rice, Tebonnet); 0.5000 kg/ha
  Preemergence herbicidal rating ORYSAT: 6.0
[5]; 0.0313 kg/ha
  herbicidal effect rating, ECHORC: 9.0
[5]; 0.0625 kg/ha
  herbicidal effect rating, ECHORC: 9.0
[5]; 0.1250 kg/ha
  herbicidal effect rating, ECHORC: 9.0
[5]; 0.2500 kg/ha
  herbicidal effect rating, ECHORC: 9.0
CYPSE (Flatsedge); 0.0313 kg/ha
  herbicidal effect rating, CYPSE: 0.0
CYPSE (Flatsedge); 0.0625 kg/ha
  herbicidal effect rating, CYPSE: 0.0
CYPSE (Flatsedge); 0.1250 kg/ha
  herbicidal effect rating, CYPSE: 3.0
CYPSE (Flatsedge); 0.2500 kg/ha
  herbicidal effect rating, CYPSE: 5.0
MOOVA (Monochoria); 0.0313 kg/ha
  herbicidal effect rating, MOOVA: 9.0
MOOVA (Monochoria); 0.0625 kg/ha
  herbicidal effect rating, MOOVA: 9.0
MOOVA (Monochoria); 0.1250 kg/ha
  herbicidal effect rating, MOOVA: 9.0
MOOVA (Monochoria); 0.2500 kg/ha
  herbicidal effect rating, MOOVA: 9.0
[6]; 0.0313 kg/ha
  herbicidal effect rating, SAGPY: 4.0
[6]; 0.0625 kg/ha
  herbicidal effect rating, SAGPY: 5.0
[6]; 0.1250 kg/ha
  herbicidal effect rating, SAGPY: 6.0
[6]; 0.2500 kg/ha
  herbicidal effect rating, SAGPY: 7.0
